Consider 1 molecule from US5340591A, “Method of producing a solid dispersion of the sparingly water-soluble drug, nilvadipine” (Fujisawa Pharmaceutical Co., Ltd., priority 1992, dated 1994).

The solubility is the dissolved amount per volume that the medium holds. The low end stands for little dissolved substance, the high end for much dissolved substance.

This data set can be described thus: Solubility of nilvadipine bulk substance. The class given is physicochemical. As to conditions: J.P.

≈ marks a conversion by molar mass, not a printed value.

`COC(=O)C1=C(C#N)NC(C)=C(C(=O)OC(C)C)C1c1cccc([N+](=O)[O-])c1` (centres unmarked) [nilvadipine bulk substance, nilvadipine]: the solubility stood at 1.3 µg/mL (≈ 3.37 µM) (1st fluid) and 1 µg/mL (≈ 2.59 µM) (2nd fluid).
